# Assay results published in patent US10227323B2, “Glucosylceramide synthase inhibitors for the treatment of diseases” (BIOMARIN PHARMACEUTICAL INC., priority 2013, dated 2019).
# Target: T1, GCS (Canis lupus familiaris, UniProt A0A8I3MXG6)
# T1 sequence (A0A8I3MXG6 1-394): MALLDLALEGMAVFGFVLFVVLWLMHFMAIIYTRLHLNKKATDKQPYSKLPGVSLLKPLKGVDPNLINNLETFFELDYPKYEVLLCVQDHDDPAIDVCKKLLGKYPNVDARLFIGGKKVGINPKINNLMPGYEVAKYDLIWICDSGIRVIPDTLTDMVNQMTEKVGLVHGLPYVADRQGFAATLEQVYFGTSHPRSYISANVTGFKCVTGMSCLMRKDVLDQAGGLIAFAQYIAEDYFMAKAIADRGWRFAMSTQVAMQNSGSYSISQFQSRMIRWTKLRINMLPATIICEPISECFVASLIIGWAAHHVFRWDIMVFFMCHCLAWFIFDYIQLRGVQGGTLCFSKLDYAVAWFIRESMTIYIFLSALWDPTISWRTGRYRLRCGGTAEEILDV
# Assay: Assay 1: GCS Enzymatic Assay (MDCK cell lysate, C6-NBD-Ceramide, LC/MS)
# Format: biochemical, canine
# Conditions: Table 2; data without asterisk; read-out: IC50 (nM) generated from Assay 1
# Procedure, shortened: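 LC/MS/MS measurement of glucosylceramide and NBD-ceramide after a 1 h, 37 °C reaction with 100 μM UDP-glucose and 10 μM C6-NBD-ceramide gave IC50s or percent inhibition.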
row,SMILES,IC50 [nM]
1,"O=C(N[C@H](CN1CCCC1)[C@H](O)c1cc(F)c2c(c1)OCCO2)C(=O)c1ccc(N2CCCC2)cc1 [Example 273, N-((1R,2R)-1-(8-fluoro-2,3-dihydrobenzo[b][1,4]dioxin-6-yl)-1-hydroxy-3-(pyrrolidin-1-yl)propan-2-yl)-2-oxo-2-(4-(pyrrolidin-1-yl)phenyl)acetamide]",< 50
2,"O=C(N[C@H](CN1CCCC1)[C@H](O)c1ccc(OC2CC2)c(Cl)c1)C(=O)c1ccc(-c2ccc(C(F)(F)F)cc2)cc1 [Example 274, N-((1R,2R)-1-(3-chloro-4-cyclopropoxyphenyl)-1-hydroxy-3-(pyrrolidin-1-yl)propan-2-yl)-2-oxo-2-(4′-(trifluoromethyl)-[1,1′-biphenyl]-4-yl)acetamide]",< 50
3,"O=C(N[C@H](CN1CCCC1)[C@H](O)c1cc(Cl)c2c(c1)OCCO2)C(=O)c1ccc(-c2ccc3c(cnn3C3CC3)c2)cc1 [Example 276, N-((1R,2R)-1-(8-chloro-2,3-dihydrobenzo[b][1,4]dioxin-6-yl)-1-hydroxy-3-(pyrrolidin-1-yl)propan-2-yl)-2-(4-(1-cyclopropyl-1H-indazol-5-yl)phenyl)-2-oxoacetamide]",< 50
4,"O=C(N[C@H](CN1CCCC1)[C@H](O)c1ccc(OC2CC2)c(Cl)c1)C(=O)c1ccc(-c2ccc3c(cnn3C3CC3)c2)cc1 [Example 277, N-((1R,2R)-1-(3-chloro-4-cyclopropoxyphenyl)-1-hydroxy-3-(pyrrolidin-1-yl)propan-2-yl)-2-(4-(1-cyclopropyl-1H-indazol-5-yl)phenyl)-2-oxoacetamide]",< 50
5,"Cn1ncc2cc(-c3ccc(C(=O)C(=O)N[C@H](CN4CCC4)[C@H](O)c4ccc(OC5CC5)c(Cl)c4)cc3)ccc21 [Example 279, N-((1R,2R)-3-(azetidin-1-yl)-1-(3-chloro-4-cyclopropoxyphenyl)-1-hydroxypropan-2-yl)-2-(4-(1-methyl-1H-indazol-5-yl)phenyl)-2-oxoacetamide]",< 50
6,"O=C(N[C@H](CN1CCCC1)[C@H](O)c1ccc(OC2CC2)c(Cl)c1)C(=O)c1ccc(-c2ccc3cnn(C4CC4)c3c2)cc1 [Example 281, N-((1R,2R)-1-(3-chloro-4-cyclopropoxyphenyl)-1-hydroxy-3-(pyrrolidin-1-yl)propan-2-yl)-2-(4-(1-cyclopropyl-1H-indazol-6-yl)phenyl)-2-oxoacetamide]",< 50
7,"O=C(N[C@H](CN1CCCC1)[C@H](O)c1ccc(OC2CC2)c(Cl)c1)C(=O)c1ccc(-c2ccc3cn(C4CC4)nc3c2)cc1 [Example 284, N-((1R,2R)-1-(3-chloro-4-cyclopropoxyphenyl)-1-hydroxy-3-(pyrrolidin-1-yl)propan-2-yl)-2-(4-(2-cyclopropyl-2H-indazol-6-yl)phenyl)-2-oxoacetamide]",< 50
8,"O=C(N[C@H](CN1CCC1)[C@H](O)c1cc(Cl)c2c(c1)OCCO2)C(=O)c1ccc(-c2ccc3c(cnn3C3CC3)c2)cc1 [Example 285, N-((1R,2R)-3-(azetidin-1-yl)-1-(8-chloro-2,3-dihydrobenzo[b][1,4]dioxin-6-yl)-1-hydroxypropan-2-yl)-2-(4-(1-cyclopropyl-1H-indazol-5-yl)phenyl)-2-oxoacetamide]",< 50
9,"O=C(N[C@H](CN1CCCC1)[C@H](O)c1ccc(OC2CC2)c(Cl)c1)C(=O)c1ccc(-c2ccc(F)cc2)nc1 [Example 287, N-((1R,2R)-1-(3-chloro-4-cyclopropoxyphenyl)-1-hydroxy-3-(pyrrolidin-1-yl)propan-2-yl)-2-(6-(4-fluorophenyl)pyridin-3-yl)-2-oxoacetamide]",< 50
10,"O=C(N[C@H](CN1CCCC1)[C@H](O)c1ccc(OC2CC2)c(Cl)c1)C(=O)c1ccc2c(cnn2Cc2ccc(F)cc2)c1 [Example 288, N-((1R,2R)-1-(3-chloro-4-cyclopropoxyphenyl)-1-hydroxy-3-(pyrrolidin-1-yl)propan-2-yl)-2-(1-(4-fluorobenzyl)-1H-indazol-5-yl)-2-oxoacetamide]",< 50
11,"O=C(N[C@H](CN1CCCC1)[C@H](O)c1cc(F)c2c(c1)OCCO2)C(=O)c1ccc2c(cnn2Cc2ccc(F)cc2)c1 [Example 289, N-((1R,2R)-1-(8-fluoro-2,3-dihydrobenzo[b][1,4]dioxin-6-yl)-1-hydroxy-3-(pyrrolidin-1-yl)propan-2-yl)-2-(1-(4-fluorobenzyl)-1H-indazol-5-yl)-2-oxoacetamide]",< 50
12,"CC(C)(C)Oc1ccc([C@@H](O)[C@@H](CN2CCCC2)NC(=O)C(=O)c2ccc(-c3ccc(F)cc3)cc2)cc1Cl [Example 291, N-((1R,2R)-1-(4-(tert-butoxy)-3-chlorophenyl)-1-hydroxy-3-(pyrrolidin-1-yl)propan-2-yl)-2-(4′-fluoro-[1,1′-biphenyl]-4-yl)-2-oxoacetamide]",50 to 5000
13,"O=C(N[C@H](CN1CCCC1)[C@H](O)c1ccc(OC2CC2)c(F)c1)C(=O)c1cc2ccc(Cl)cc2s1 [Example 292, 2-(6-chlorobenzo[b]thiophen-2-yl)-N-((1R,2R)-1-(4-cyclopropoxy-3-fluorophenyl)-1-hydroxy-3-(pyrrolidin-1-yl)propan-2-yl)-2-oxoacetamide]",< 50
14,"Cc1cc(F)ccc1-c1ccc(C(=O)C(=O)N[C@H](CN2CCCC2)[C@H](O)c2ccc(OC3CC3)c(Cl)c2)cc1 [Example 295, N-((1R,2R)-1-(3-chloro-4-cyclopropoxyphenyl)-1-hydroxy-3-(pyrrolidin-1-yl)propan-2-yl)-2-(4′-fluoro-2′-methyl-[1,1′-biphenyl]-4-yl)-2-oxoacetamide]",50 to 5000

# Continued, values first:
row,IC50 [nM],SMILES
1,< 50,"O=C(N[C@H](CN1CCCC1)[C@H](O)c1cc(F)c2c(c1)OCCO2)C(=O)c1ccc(-c2ccc(Cl)cc2)cc1 [Example 272, 2-(4′-chloro-[1,1′-biphenyl]-4-yl)-N-((1R,2R)-1-(8-fluoro-2,3-dihydrobenzo[b][1,4]dioxin-6-yl)-1-hydroxy-3-(pyrrolidin-1-yl)propan-2-yl)-2-oxoacetamide]"
2,< 50,"O=C(N[C@H](CN1CCCC1)[C@H](O)c1cc(F)c2c(c1)OCCO2)C(=O)c1ccc(-c2ccc3c(cnn3C3CC3)c2)cc1 [Example 275, 2-(4-(1-cyclopropyl-1H-indazol-5-yl)phenyl)-N-((1R,2R)-1-(8-fluoro-2,3-dihydrobenzo[b][1,4]dioxin-6-yl)-1-hydroxy-3-(pyrrolidin-1-yl)propan-2-yl)-2-oxoacetamide]"
3,< 50,"O=C(N[C@H](CN1CCC1)[C@H](O)c1cc(F)c2c(c1)OCCO2)C(=O)c1ccc(-c2ccc3c(cnn3C3CC3)c2)cc1 [Example 278, N-((1R,2R)-3-(azetidin-1-yl)-1-(8-fluoro-2,3-dihydrobenzo[b][1,4]dioxin-6-yl)-1-hydroxypropan-2-yl)-2-(4-(1-cyclopropyl-1H-indazol-5-yl)phenyl)-2-oxoacetamide]"
4,< 50,"O=C(N[C@H](CN1CCCC1)[C@H](O)c1cc(F)c2c(c1)OCCO2)C(=O)c1ccc(-c2ccc3cnoc3c2)cc1 [Example 280, 2-(4-(benzo[d]isoxazol-6-yl)phenyl)-N-((1R,2R)-1-(8-fluoro-2,3-dihydrobenzo[b][1,4]dioxin-6-yl)-1-hydroxy-3-(pyrrolidin-1-yl)propan-2-yl)-2-oxoacetamide]"
5,< 50,"O=C(N[C@H](CN1CCCC1)[C@H](O)c1cc(F)c2c(c1)OCCO2)C(=O)c1ccc(-c2ccc3cnn(C4CC4)c3c2)cc1 [Example 282, 2-(4-(1-cyclopropyl-1H-indazol-6-yl)phenyl)-N-((1R,2R)-1-(8-fluoro-2,3-dihydrobenzo[b][1,4]dioxin-6-yl)-1-hydroxy-3-(pyrrolidin-1-yl)propan-2-yl)-2-oxoacetamide]"
6,< 50,"O=C(N[C@H](CN1CCC1)[C@H](O)c1cc(F)c2c(c1)OCCO2)C(=O)c1ccc(-c2ccc3cnn(C4CC4)c3c2)cc1 [Example 283, N-((1R,2R)-3-(azetidin-1-yl)-1-(8-fluoro-2,3-dihydrobenzo[b][1,4]dioxin-6-yl)-1-hydroxypropan-2-yl)-2-(4-(1-cyclopropyl-1H-indazol-6-yl)phenyl)-2-oxoacetamide]"
7,50 to 5000,"O=C(N[C@H](CN1CCCC1)[C@H](O)c1cc2c(c(C(F)(F)F)c1)OCCO2)C(=O)c1ccc(-c2ccc(F)cc2)cc1 [Example 286, 2-(4′-fluoro-[1,1′-biphenyl]-4-yl)-N-((1R,2R)-1-hydroxy-3-(pyrrolidin-1-yl)-1-(8-(trifluoromethyl)-2,3-dihydrobenzo[b][1,4]dioxin-6-yl)propan-2-yl)-2-oxoacetamide]"
8,< 50,"O=C(N[C@H](CN1CCCC1)[C@H](O)c1cc(F)c2c(c1)OCCO2)C(=O)c1ccc(-c2ccc3oncc3c2)cc1 [Example 290, 2-(4-(benzo[d]isoxazol-5-yl)phenyl)-N-((1R,2R)-1-(8-fluoro-2,3-dihydrobenzo[b][1,4]dioxin-6-yl)-1-hydroxy-3-(pyrrolidin-1-yl)propan-2-yl)-2-oxoacetamide]"
9,< 50,"CC(C)(C)c1ccc(-c2ccc(C(=O)C(=O)N[C@H](CN3CCC3)[C@H](O)c3cc(F)c4c(c3)OCCO4)cc2)cc1 [Example 293, N-((1R,2R)-3-(azetidin-1-yl)-1-(8-fluoro-2,3-dihydrobenzo[b][1,4]dioxin-6-yl)-1-hydroxypropan-2-yl)-2-(4′-(tert-butyl)-[1,1′-biphenyl]-4-yl)-2-oxoacetamide]"
10,< 50,"CC(C)(C)c1ccc(-c2ccc(C(=O)C(=O)N[C@H](CN3CCCC3)[C@H](O)c3cc(F)c4c(c3)OCCO4)cc2)cc1 [Example 294, 2-(4′-(tert-butyl)-[1,1′-biphenyl]-4-yl)-N-((1R,2R)-1-(8-fluoro-2,3-dihydrobenzo[b][1,4]dioxin-6-yl)-1-hydroxy-3-(pyrrolidin-1-yl)propan-2-yl)-2-oxoacetamide]"
